Values after ≈ are worked out from the molar mass of the structure shown. Like-named read-outs stand apart in the source and are kept apart here.
What was measured:
[1] = tested on: P388 murine leukemia cells; experiment: P388 mouse leukemia cell antiproliferative assay (MTT); type: cell-based; conditions: 48 hour exposure
Procedure: P388 murine leukemia cells obtained from Dr. J. Mayo, National Cancer Institute, Bethesda, Md., were maintained in Roswell Park Memorial Institute medium 1640 (RPMI-1640) supplemented with 10% horse serum and cultured in plastic tissue culture flasks and kept in an incubator at 37° C. in humidified air containing 5% CO2. Antibiotic-free stock cultures of P388 cells were subcultured to 10^5 cells/ml by dilutions in fresh growth medium at 2 to 5 day intervals.
(§1) To assess the antiproliferative effects of agents against P388 cells, 200 μl cultures (96-well tissue culture plates, Nunc, Denmark) were established at 1×10^5 cells/ml in drug-free medium containing agents at various concentrations. After 48 hour exposures, P388 cells were enumerated using 3-[4,5-dimethylthiazol-2-yl]-2,5-diphenyltetrazolium bromide (MTT) as described below.
(§2) To quantitate the effects of agents on cell proliferation, 75 μl warm growth medium containing 5 mg/ml MTT was added to each well. Cultures were returned to the incubator and left undisturbed for 90 minutes. To spectrophotometrically quantitate formation of reduced formazan, plates were centrifuges (900 g, 5 minutes), culture fluids were removed by aspiration, and 200 μl of acidified isopropanol (2 ml concentrated HCl/L isopropanol) added per well. The absorbance of the resulting solutions were measured at 570 nm with a plate reader (MR700 Microplate Reader, Dynatech Laboratories, Chantilly, Va.). […] A linear relationship between P388 cell number and formazan production was found over the range of cell densities observed in this study.

A549 cell line = experiment: A549 cell assay (analogous MTT procedure); type: cell-based; conditions: Homo sapiens, procedure analogous to P388
Procedure: as §1, §2
(§3) Analogous procedures were followed for the A549 and HT29 cell lines.

HT29 cell line = experiment: HT29 cell assay (analogous MTT procedure); type: cell-based; conditions: Homo sapiens, HT-29; procedure analogous to P388
Procedure: as §1, §2, §3

C. albicans = C. albicans MIC (microtiter broth dilution); type: cell-based, Candida albicans (ATCC strain 44506); conditions: Candida albicans, read-out: C. albicans MIC
Procedure: (§4) All media were autoclaved at 121° C. for 15 minutes. Candida albicans: C. albicans (ATCC strain 44506) was grown on Sabouraud dextrose agar to produce single colonies, one of which was used to inoculate Sabouraud dextrose broth. The broth was incubated at 37° C. with shaking at 200 rpm for 18 hours. The resultant culture was brought to 10% (v/v) glycerol, frozen at -80° C., and used as the inoculum for the anti-Candida assay. Aspergillus nidulans: A. nidulans (ATCC strain 36321) was grown from a spore stock on the surface of a YAG plate (YAG: yeast extract 0.5%; glucose 2%; agar 2%) at 30° C. until the colony sporulated; at this point the colony was green (usually within one week). Spores were harvested by washing with 0.1% (v/v) TRITON™ X-100. Spores were then washed with distilled water before freezing at -80° C. in the presence of 10% (v/v) glycerol. Bacillus subtilis: Standard spore stocks (ATCC strain 6633) were purchased from Difco (#0453-36-0). Escherichia coli: The BMR strain was used. This was grown overnight with shaking at 37° C. in nutrient broth and frozen in 1 mL aliquots in the presence of 10% (v/v) glycerol at -80° C. Pseudomonas aeruginosa: (ATCC strain 27853) Grown and stored as described for E. coli.
Two-fold dilutions of the drug/extract were prepared in 50 μL volumes of a suitable solvent using 96-well microtiter plates. A 25% mixture of MeOH in water was generally used; however, EtOH, 5% EtOAc in EtOH, DMSO, or other compatible solvents could be substituted if necessary. In a separate 96-well plate, 35 μL volumes of either Sabouraud dextrose broth or RPMI-1640 were placed in each well. The drug/extract (5 μL) was then transferred to the broth using a 12-place pipettor. An inoculum of C. albicans in the appropriate medium was added to give a cell density of 1000 cells/mL and a total volume of 50 μL. […] SDB plates were incubated at 37° C. overnight, RPMI-1640 plates were incubated at 37° C. in a humidified atmosphere of 10% CO2.

B. subtilis = B. subtilis growth inhibition (disc diffusion assay); type: cell-based, Bacillus subtilis (ATCC strain 6633); conditions: result in words
Procedure: as §4, with “This was grown overnight with shaking at 37° C. in nutrient broth and frozen in 1 mL aliquots in the presence of 10% (v/v) glycerol at -80° C. Pseudomonas aeruginosa: (ATCC strain 27853) Grown and stored as described for E. coli.” left out
Paper discs (6.35 mm) were impregnated with the test substance and allowed to dry. […] Plates were incubated overnight (C. albicans, B. subtilis, E. coli, and P. aeruginosa 37° C.; and A. nidulans 30° C.) after which time the zones of growth inhibition could be read. These are expressed as the diameter of the zone in millimeters. […]

[2] = lowest concentration completely inhibiting growth

SMILES	IC50 [1]	IC50 (A549 cell line)	IC50 (HT29 cell line)	MIC (C. albicans)	inhibition of the growth of B. subtilis (B. subtilis)	MIC (C. albicans; [2])
Cn1cc2c3c1C(=O)C(N)=C(Cl)C3=NCC2 [Isobatzelline C]	12.6 µg/mL (≈ 53.5 µM)	> 20 µg/mL	10 µg/mL (≈ 42.4 µM)	50 µg/mL (≈ 212 µM)	–	–
CSc1c2c3c(n1C)C(=O)C(N)=C(Cl)C3=NCC2 [Isobatzelline A]	0.42 µg/mL (≈ 1.49 µM)	0.07 µg/mL (≈ 0.248 µM)	0.44 µg/mL (≈ 1.56 µM)	–	inhibit the growth of B. subtilis	3.1 µg/mL (≈ 11 µM)
CSc1c2c3c(n1C)C(=O)C(N)=CC3=NCC2 [Isobatzelline B]	2.6 µg/mL (≈ 10.5 µM)	2.8 µg/mL (≈ 11.3 µM)	2.5 µg/mL (≈ 10.1 µM)	–	–	25 µg/mL (≈ 101 µM)
CSc1c2ccnc3c2c(n1C)C(=O)C(N)=C3Cl [Isobatzelline D]	20 µg/mL (≈ 71.5 µM)	> 20 µg/mL	> 20 µg/mL	–	–	25 µg/mL (≈ 89.4 µM)

From patent US5028613A, “Novel pyrroloquinoline alkaloids and methods of use” (Repligen Corporation, priority 1990, dated 1991)
